Type in all cases: cell-based
One assay deals with MMP-13. The assay can be described thus: ELISA for MMP-13 in conditioned medium of human chondrocytes. The following applies: 48 hours; CB12-II 50 μM, TNF-α 50 ng/ml. As to the method: (§1) First-passaged normal human chondrocytes isolated by the method described above and cultured at high density (2×10^5 cells/cm^2) were trypsinized and resuspended in Medium A containing 1% FCS at a density of 10^6 cells/ml. Then, 200 μl of the cell suspension was each plated onto round-bottomed 96-well culture plate. On the next day after plating, CB12-II at 50 μM, USP at 50 μM, and TNF-α at 50 ng/ml were added to the culture media, and the culture was maintained for 24-48 hours. Conditioned media were collected and subjected to ELISA assay. The ELISA kits (BIOTRAK) for MMP-1 and MMP-13 were purchased from Amersham Pharmacia Biotech (Piscataway, N.J.). Measurement range was 6.25-100 ng/ml for MMP-1 and 0.094-3 ng/ml for MMP-13. Sensitivity for the assay was 1.7 ng/ml for MMP-1 and 0.7 ng/ml for MMP-13.
(§2) Protein levels of MMP-1 and MMP-13 were also tested by incubating isolated human chondrocytes for 48 hours in high density culture (10^6 cells/ml) with CB12-II, negative control peptide USP, or cytokine TNF-α, as discussed above. MMP-1 and MMP-13 secretion into medium from the cells was measured using ELISA (see FIGS. 9A and 9B).

The next assay concerns MMP-1. Nature of the assay: ELISA for MMP-1 in conditioned medium of human chondrocytes. The following applies: 48 hours; CB12-II 50 μM, TNF-α 50 ng/ml. The method, then: as §1, §2
The test system of assay [1] is bovine articular cartilage explant. The assay can be described thus: Collagenase-cleaved type II collagen (COL2-3/4C) in bovine articular cartilage explant culture. The following applies: 1 and 10 μM, time- and dose-dependent. As to the method: The cartilages were prepared as previously described (Dahlberg, L. et al. (2000) supra. In brief, the cartilage samples were washed three times with basal culture medium containing Dulbecco's modified Eagle's medium (DMEM; Gibco BRL, Life Technologies, Grand Island, N.Y.) with 20 mM HEAPS buffer (pH 7.4) (Gibco BRL), 45 mM NaHCO3, 100 units/ml penicillin, 100 μg/ml streptomycin and 150 μg/ml gentamycin sulphate (Medium A). Full-depth cartilage slices from a single area, around 20 mm×20 mm were cut vertical to the articular surface and then into cubes of approximately 2 mm×2 mm (5-7 cubes were randomly obtained and wet weights about 50-70 mg/well determined).
The cartilage was assigned to 48 well plate (ca 40 mg/well) and kept in Medium A supplemented with 50 μg/ml ascorbic acid, 0.1 mg/bovine serum albumin, 50 μg/ml insulin, 5.0 μg/ml and 5.0 μg/ml sodium DMEM alone at 37° C. in 95% air/5% CO2. The cartilage was precultured for 2 days and medium was changed at day 0. Thereafter medium (as described in pellet cultures) was replaced every four days. Various CNBr fragments and/or synthetic peptides were freshly added from day 0 at each medium change. Thereafter, cartilage explants and conditioned media were harvested and stored at −20° C.
The cell pellets and cartilage explant cultured for various times were digested for the extraction of collagenase-generated neoepitope COL2-3/4Cshort (Billinghurst, R. C. et al., (1997) supra) and denatured type II collagen epitope COL2-3/4m and total type II collagen (Hollander, A. P. et al. (1994a) supra), as previously described: Briefly, the harvested pellets were incubated overnight with 1.0 mg/ml α-chymotrypsin at 37° C. to cleave and solubilize denatured collagen leaving the above neoepitope and epitope intact. After inhibition of α-chymotrypsin activity with N-tosyl-L-phenelalanine-chloromethyl ketone (Sigma), the samples were centrifuged and the supernatants were removed and boiled for 10 min. The COL2-3/4Cshort epitope (hereafter referred to as COL2-3/4Cshort) generated by cleavage of type II collagen by collagenase (Billinghurst, R. C. et al. (1997) supra) and intrachain epitope (COL2-3/4m) exposed in denatured type II collagen (Hollander, A. P. et al. (1994a) supra) were measured in α-chymotrypsin extracts by immunoassay. The COL2-3/4Cshort epitope is detected in an ELISA assay using a rabbit antibody to the carboxyterminal cleavage neoepitope on the TCA piece generated by primary collagenase cleavage of type II collagen. The release of the COL2-3/4C epitope into media was also measured by immunoassay. Total contents in tissue/cells and media was recorded for COL2-3/^4Cshort epitope. The COL2-3/4m epitope was recorded in cells and tissue where it was concentrated. The remaining residues of pellets and explants were digested overnight with 1.0 mg/ml proteinase K at 56° C. to extract the remaining intact type II collagen and then boiled for 10 min to denature the enzyme. Total type II collagen content in the pellets and explant was determined from the collective amount of COL2-3/4m in both the α-chymotrypsin and proteinase K digests.

Turning to ERGPPGPQGARGFPGTPGLPGVK [CB12-II], the “MMP-13 secretion into medium versus no peptide and negative control peptide (USP)” value in the assay with MMP-13 is reported as “significantly higher”. In the assay on MMP-1, the “MMP-1 secretion into medium versus no peptide and negative control peptide (USP)” value is listed as “significantly higher”. Besides, the “induction of total collagenase cleavage of type II collagen by CB12 subpeptides” value in assay [1] is given as “most pronounced”.

Values taken from patent publication US20040122209A1, “Products for regulating the degradation of collagen and methods for identifying same” (Shriners Hospital For Children, priority 2002, published 2004).
